Data from US20250059232A1, “PENTAPEPTIDE AND USE THEREOF” (ENSOL BIOSCIENCES INC., priority 2021, published 2025).

Tests used:
MDA-MB-231 [1] = assay: MDA-MB-231 fat pad xenograft in athymic nude mouse: tumor volume and weight; format: in vivo, human
Procedure: 5×10^6 cells/head of the human triple negative breast cancer cell line MDA-MB-231 (American Type Culture Collection (ATCC)) were mixed with Matrigel and PBS (1:1). 100 ul of the mixture was injected into the right third fat pad of 7-week-old female athymic nude mouse. After the transplantation, drug administration started from an average tumor size of 80 mm^3. Paclitaxel 20 mg/kg was administered on Day 0 and on Day 1. That is, the paclitaxel 20 mg/kg was administered a total of two times. Then, the peptide of Example 1 was administered in a dose of 100 mg/kg on Day 2, Day 4, and Day 6. That is, the peptide of Example 1 was administered a total of three times. Tumor volumes were measured 3 times a week for 3 weeks after administration of the first dose. Tumor weights were measured by necropsy after the end of the experiment. For each group, ten mice were used.
Tumor volume changes over time for each group are shown in FIG. 8, and tumor weight on the eighteenth day after the administration of the first dose for each group is shown in FIG. 9. FIG. 8 is a graph illustrating the changes in tumor volume over time after sample administration in animal experimentation. In FIG. 8, the x-axis represents the number of days elapsed after the start of administration and the y-axis represents the tumor volume change (mm^3). FIG. 9 is a graph illustrating a tumor weight for each test group in animal experimentation. In FIG. 9, the x-axis represents test groups and the y-axis represents tumor weights (mg).

[2] = tested on: PC3 cells co-cultured with NK92 cells; assay: PC3/NK92 co-culture: Granzyme B expression by immuno-fluorescence staining; format: cell-based, human; conditions: 300 uM with 10 μg/ml anti-PD-L1; 12 hours
Procedure: The experiment described below was performed to identify the tumor suppression mechanism of the combination treatment of the peptide of Example 1 and anti-PD-L1, which is an immune checkpoint inhibitor. First, prostate cancer cell lines PC3 (ATCC) and NK92 (Immunotherapy Research Center, Korea Research Institute of Bioscience and Biotechnology) were co-cultured. 7.8×10^4 PC3 cells were seeded in 4-well chambers and stabilized by culturing overnight, and the PC3 cells were treated with 10 μg/ml of the anti-PD-L1 and 300 uM of the peptide of Example 1 for each condition while the same number of NK92 cells were additionally seeded. After 12 hours, the NK92 cells were removed by washing, and only tumor cells were fixed. Next, the expression level of Granzyme B was determined through immuno-fluorescence staining. The Granzyme B expression levels were calculated as proportions relative to the control. FIG. 12 is a graph showing a Granzyme B expression level for each test group in an anticancer effect evaluation test, in which the x-axis represents the test group and the y-axis represents the Granzyme B expression level (%) relative to the control group.

MDA-MB-231 [3] = assay: MDA-MB-231 cell viability (CCK-8) in NK92 co-culture with anti-PD-L1; format: cell-based, human; conditions: 300 uM with 10 ug/ml anti-PD-L1, 24/48/72 hours of co-culturing
Procedure: The experiment described below was performed to evaluate the tumor cell proliferation inhibitory effect of the combination treatment of the peptide of Example 1 and the anti-PD-L1, which is an immune checkpoint inhibitor. First, 5×10^3 cells of a human prostate cancer cell line PC3, 5×10^3 cells of a human lung cancer cell line A549 (Korean Cell Line Bank), and 1×10^4 cells of a human triple negative breast cancer cell line MDA-MB-231 (ATCC) were seeded in 96 wells and stabilized by culturing overnight. Then, the seeded cells were treated with 10 ug/ml of the anti-PD-L1 and 300 uM of the peptide of Example 1, for each condition while NK92 cells for 5×10^3 cells of each of the PC3 cell line and the MDA-MB-231 cell line and 2.5×10^3 cells of the A549 cell line were additionally seeded. After 24/48/72 hours of co-culturing (for PC3 and MDA-MB-231) and 24/48 hours of co-culturing (for A549), the NK92 cells were removed by washing, and the cancer cell viability was measured by CCK-8 addition. FIG. 15 is a graph illustrating the changes in PC3 cell viability over culturing time for each test group in an anticancer effect evaluation test. In FIG. 15, the x-axis represents culturing time and the y-axis represents cell viability (%). FIG. 16 is a graph illustrating the changes in A549 cell viability over culturing time for each test group in an anticancer effect evaluation test. […]

[4] = 4-week repeated subcutaneous toxicity and toxicokinetic test in beagle dogs; format: in vivo, beagle dog
Procedure: In addition, 3 female and male beagle dogs were used per group to repeatedly subcutaneously administer the pentapeptide of Example 1 at doses of 40, 120, 400 mg/kg for 4 weeks daily. During the test period, general symptom observation, weight and feed intake measurements, ophthalmological examination, electrocardiogram, urinalysis, hematology and clinical biochemistry test, and toxicokinetic examination were performed. In addition, organ weight measurements, visual inspection, and histopathological examination of autopsy subjects were performed. […] Thus, the NOAEL (No Observed Adverse Effect Level) of the pentapeptide of Example 1 for female and male beagle dogs under the presented test conditions is determined to be 400 mg/kg/day.

[5] = 100 mg/kg co-administered with paclitaxel, eighteenth day after first dose
[6] = 40, 120, 400 mg/kg subcutaneous daily for 4 weeks

## Ac-QLHLD-OH [Example 1, acetyl-QLHLD]
MDA-MB-231 [1]; 100 mg/kg Day 2, 4, 6 after paclitaxel 20 mg/kg Day 0 and 1, ten mice
  CR (mice in which the tumor disappeared): 20%
MDA-MB-231 [1]; [5]
  Reduction in tumor volume compared to control group: 48%
  Reduction in tumor weight compared to control group: 51%
MDA-MB-231 [1]; co-administered with paclitaxel, two mice
  Day on which the tumor disappeared: 14 days
MDA-MB-231 [1]; combination administration with paclitaxel
  Duration of the efficacy of a single-cycle drug treatment: ≤ 2 weeks
[2]
  Granzyme B expression in tumor cells compared to the group treated with only anti-PD-L1: increased significantly
MDA-MB-231 [3]
  Cancer cell viability compared to the group treated with only anti-PD-L1: significant decrease in cancer cell viability
[4]; [6]
  Abnormalities (body weight, feed intake, ophthalmic examination, electrocardiogram, urinalysis, hematology, clinical biochemistry, necropsy, organ weight): No abnormalities
  Deaths: no deaths were observed
[4]; Day 1 and Day 28, 40, 120, 400 mg/kg
  Systemic exposure (AUClast, Cmax), dose dependence: approximately proportionally increased with increase in the dose
[4]; Day 1 vs Day 28
  Accumulation: no pentapeptide accumulation
[4]; both sexes, dog, in vivo, sc, female and male, subcutaneous, daily for 4 weeks, read-out: NOAEL (No Observed Adverse Effect Level)
  NOAEL at 4 weeks: 400 mg/kg/day
